Data set [1] relates to MCL and ALL cell lines as well as normal PBMCs. The experiment in a line: GI50 of MCL and ALL cell lines compared to normal PBMCs (Figure 4C). It is filed as cell-based, human. As to conditions: MCL and T-ALL cell lines vs PBMCs in vitro, 72 hours post-treatment. As to the method:
Figure 4 CK2 and CDK4 expression in cell lines and primary samples (A) mRNA levels of CK2 subunits in a panel of MCL and T-ALL leukemic cell lines and normal human PBMCs. (B) Protein levels of CK2 subunits and pRB^Ser807/811 in a panel of MCL and T-ALL leukemic cell lines and normal human PBMCs. (C) Calculation of GI50 values against of ON108110 against MCL and ALL cell lines as well as normal PBMCs 72 hours post-treatment.
Cell lines were cultured in RPMI-1640 medium (Thermo Scientific) supplemented with 10% heat inactivated FBS and penicillin-streptomycin at 37°C under humidified conditions and 5% CO2. All cell lines tested negative for mycoplasma. […] Compounds were added 24 hrs post-plating at the indicated concentrations. […]

Another data set relates to 22Rv1. Description: Growth inhibition (GI50), Cell Titer Blue. It counts as cell-based. The note with it: Homo sapiens; 22Rv1, Prostate Cancer; 96 hrs post-treatment. How it is done:
(§1) Cell lines were cultured in RPMI-1640 medium (Thermo Scientific) supplemented with 10% heat inactivated FBS and penicillin-streptomycin at 37°C under humidified conditions and 5% CO2. All cell lines tested negative for mycoplasma. […] Compounds were added 24 hrs post-plating at the indicated concentrations. Cell counts were determined from duplicate wells 96 hrs post-treatment using the Cell Titer Blue assay in conjunction with the GloMax plate reader (Promega).
(The colour change of resazurin is a common sign of viable cells or microbes.)

Another data set concerns JVM2. The experiment in a line: Growth inhibition (GI50), Cell Titer Blue. It is filed as cell-based. The note with it: Homo sapiens, JVM-2; JVM2, Mantle Cell Lymphoma; 96 hrs post-treatment. How it is done: as §1
Another data set has as its system Z138C. The experiment in a line: Growth inhibition (GI50), Cell Titer Blue. It is filed as cell-based. As to conditions: Homo sapiens, Mantle Cell Lymphoma, 96 hrs post-treatment. As to the method:
as §1

For a further data set, the system named is GRANTA-519. The experiment in a line: Growth inhibition (GI50), Cell Titer Blue. It is filed as cell-based. As to conditions: Homo sapiens; GRANTA-519, Mantle Cell Lymphoma; 96 hrs post-treatment. How it is done: as §1
The test system of a further data set is HEL. The experiment in a line: Growth inhibition (GI50), Cell Titer Blue. As to conditions: Homo sapiens, Erythroleukemia, 96 hrs post-treatment. It is filed as cell-based. How it is done: as §1
The subject of a further data set is K562. The experiment in a line: Growth inhibition (GI50), Cell Titer Blue. It is filed as cell-based. The note with it: Homo sapiens; K562, Chronic Myeloid Leukemia; 96 hrs post-treatment. As to the method:
as §1

The test system of a further data set is AsPc1. Description: Growth inhibition (GI50), Cell Titer Blue. As to conditions: Homo sapiens; AsPc1, Pancreatic Cancer; 96 hrs post-treatment. It is filed as cell-based. How it is done: as §1
The test system of the next data set is HBL2. The experiment in a line: Growth inhibition (GI50), Cell Titer Blue. It counts as cell-based. The note with it: Homo sapiens; HBL2, Mantle Cell Lymphoma; 96 hrs post-treatment. As to the method:
as §1

In the next data set the test system is RS-4-11. The experiment in a line: Growth inhibition (GI50), Cell Titer Blue. It counts as cell-based. As to conditions: Homo sapiens, RS4-11; RS-4-11, Acute Lymphoblastic Leukemia; 96 hrs post-treatment. As to the method:
as §1

The test system of a further data set is CEM. Description: Growth inhibition (GI50), Cell Titer Blue. It counts as cell-based. The note with it: Homo sapiens, CCRF-CEM, Acute Lymphoblastic Leukemia, 96 hrs post-treatment. As to the method:
as §1

The subject of another data set is LnCap. Description: Growth inhibition (GI50), Cell Titer Blue. It is filed as cell-based. As to conditions: Homo sapiens, Prostate Cancer, 96 hrs post-treatment. As to the method: as §1
In another data set the test system is MiaPaca-2. Description: Growth inhibition (GI50), Cell Titer Blue. It counts as cell-based. As to conditions: Homo sapiens, MIA PaCa-2; MiaPaca-2, Pancreatic Cancer; 96 hrs post-treatment. How it is done:
as §1

The test system of the next data set is hPBMC. The experiment in a line: Growth inhibition (GI50), Cell Titer Blue. It is filed as cell-based, human. As to conditions: normal human cells (Table 1). How it is done:
as §1
(§2) Peripheral blood samples were obtained from patients at the Icahn School of Medicine at Mount Sinai with informed and written consent for tissue banking following a protocol approved by the Institutional Review Board (MSSM IRB#11-1669) and in accordance with the Declaration of Helsinki. Peripheral blood mononuclear cells were pelleted by low-speed centrifugation, resuspended in media composed of 90% fetal bovine serum (FBS) and 10% DMSO (Sigma), frozen slowly in the vapor phase of liquid nitrogen in multiple cryovials, and stored in liquid nitrogen.

Data set [2] is described as follows: Growth inhibition (GI50), Cell Titer Blue. It is filed as cell-based, human. As to conditions: normal human peripheral blood mononuclear cells (hPBMC); hPBMC, Normal Human Peripharal Mononuclear Cells; 96 hrs post-treatment. How it is done: as §1, §2
Another data set deals with Granta-519 and CEM cells. Description: Cell cycle analysis, propidium iodide staining and flow cytometry. The note with it: 0.5-2.0μM, 24 hours. It counts as cell-based, human. As to the method: Figure 5 Modulation of cell cycle expression and induction of apoptosis in ON 108110-treated MCL and T-ALL cell lines (A) CEM and Granta-519 cells were treated with either DMSO or increasing concentrations of ON108110 (0.5-2.0μM) for 24 hours. Cell cycle analysis was performed using propidium iodide staining. (B) CEM, HBL-2, RS4-11 and Granta-519 cells were treated with either DMSO (vehicle) or increasing concentrations of ON108110 (0.5-2.0 μM) for 24 hours and stained with Annexin V/DAPI (C) Graphical representation of apoptosis induced as shown in B. (D) Granta-519 cells were treated with increasing concentrations of ON108110 for 24 hours. Caspase activation and viability were measured using the Caspase Glo 3/7 and Cell Titer Blue assay kits, respectively. […]
To determine cell cycle distribution, 70% ethanol fixed cells were washed with phosphate buffered saline (PBS), resuspended in PBS and incubated with RNase and propidium iodide at 37°C for 20 min. DNA content was analyzed on a FACS Calibur (BD Immunocytometry Systems) and the data analyzed using Flowjo software (Treestar). Annexin V staining was measured using the FITC Annexin V Apoptosis Detection Kit I (BD Biosciences) according to the instructions of the manufacturer except that DAPI was substituted at a concentration of […] to measure DNA content.
In general terms: Flow cytometry measures light scatter and fluorescence of single cells or particles in a stream.

Here are results for one compound from article PMC6340882, “Targeting protein kinase CK2 and CDK4/6 pathways with a multi-kinase inhibitor ON108110 suppresses pro-survival signaling and growth in mantle cell lymphoma and T-acute lymphoblastic leukemia” (Oncotarget, 2018).

Some results are limits rather than exact numbers.

In general, GI50 refers to the concentration giving 50% growth inhibition. High values mean less potent growth inhibition, low ones more potent growth inhibition. In the case of `CC(=O)Oc1ccc(/C=C2\Sc3ccc(F)cc3NC2=O)cc1[N+](=O)[O-]` [ON108110], the “fold more sensitive compared to PBMCs (IC50 values)” value in data set [1] is on record as more than 100 fold. Besides, the GI50 in the data set with 22Rv1 is more than 5000 nM; in the data set on JVM2, 300 nM; with Z138C, 600 nM; in the data set on GRANTA-519 it was 150 nM; in the data set on HEL, 900 nM; in the data set with K562, 2200 nM. Besides, the GI50 with AsPc1 was 2800 nM; in the data set with HBL2, 250 nM; in the data set with RS-4-11, 240 nM; with CEM it was 180 nM; in the data set with LnCap it was more than 5000 nM; in the data set with MiaPaca-2, 2600 nM. The “cytotoxicity towards normal human cells” value in the data set with hPBMC is reported as “little or no cytotoxicity”. In addition, in [2], the GI50 at 96 h was more than 5000 nM. The “effect on cell cycle progression” value in the data set with Granta-519 and CEM cells was “rapid accumulation of the cells in the G1 phase”.
